Test results reported in patent US10508113B2, “Inhibitors of tyrosine kinase 2 mediated signaling” (AbbVie Inc., priority 2018, dated 2019).

Molecular target: T1, Jak1 (Homo sapiens, UniProt P23458)
T1 construct: endogenous in cells; host or cells: TF1 cells
Experiment: Jak1 (PSTAT3 TF1) alpha screen assay: inhibition of IL-6 induced phosphorylation of STAT3 in TF1 cells
Assay type: cell-based
Conditions: for EC50: IL-6 induced pSTAT3, TF1 cells; for Tyk2 selectivity over Jak1: calculated from tabulated EC50 data (Jak1 / Tyk2)
Outline: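 IL-6-starved TF1 cells were preincubated 30 min at 37 °C with compound (top final 25 μM, 8-point 1:5 series), then stimulated with IL-6 (100 ng/mL final) for 30 min at 37 °C. Lysates were read for pSTAT3 (Tyr705) by AlphaScreen SureFire. EC50 from percent-activity dose-response curves.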

T1 sequence (P23458 whole entry): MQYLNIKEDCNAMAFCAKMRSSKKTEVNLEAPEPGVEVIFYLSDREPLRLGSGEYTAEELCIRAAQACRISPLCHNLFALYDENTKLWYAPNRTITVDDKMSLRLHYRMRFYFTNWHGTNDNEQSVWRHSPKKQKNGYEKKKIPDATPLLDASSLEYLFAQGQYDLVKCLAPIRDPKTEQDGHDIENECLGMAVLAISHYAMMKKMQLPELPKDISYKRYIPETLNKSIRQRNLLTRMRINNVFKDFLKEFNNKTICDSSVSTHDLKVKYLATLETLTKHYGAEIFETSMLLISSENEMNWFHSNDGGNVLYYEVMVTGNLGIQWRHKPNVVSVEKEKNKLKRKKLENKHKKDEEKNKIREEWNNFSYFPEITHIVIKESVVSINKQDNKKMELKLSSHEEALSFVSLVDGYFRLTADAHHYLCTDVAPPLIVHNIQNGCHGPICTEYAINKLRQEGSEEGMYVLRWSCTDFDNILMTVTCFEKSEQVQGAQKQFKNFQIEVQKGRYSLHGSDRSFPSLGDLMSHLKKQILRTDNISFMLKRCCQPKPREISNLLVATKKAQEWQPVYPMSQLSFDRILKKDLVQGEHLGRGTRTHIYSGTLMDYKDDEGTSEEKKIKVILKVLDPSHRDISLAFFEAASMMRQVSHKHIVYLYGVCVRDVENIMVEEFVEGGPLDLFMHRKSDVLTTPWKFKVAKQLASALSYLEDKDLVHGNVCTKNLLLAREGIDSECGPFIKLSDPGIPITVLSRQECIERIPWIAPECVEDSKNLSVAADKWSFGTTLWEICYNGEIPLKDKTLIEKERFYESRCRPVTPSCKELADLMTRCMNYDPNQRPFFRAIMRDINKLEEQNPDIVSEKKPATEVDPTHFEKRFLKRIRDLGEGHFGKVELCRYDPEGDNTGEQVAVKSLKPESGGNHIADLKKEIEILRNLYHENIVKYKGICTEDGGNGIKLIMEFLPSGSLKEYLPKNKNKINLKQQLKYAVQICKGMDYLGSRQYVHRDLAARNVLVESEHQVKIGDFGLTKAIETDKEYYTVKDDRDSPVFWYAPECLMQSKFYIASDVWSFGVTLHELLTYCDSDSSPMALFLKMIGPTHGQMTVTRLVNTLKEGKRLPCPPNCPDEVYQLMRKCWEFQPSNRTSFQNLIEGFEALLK

Row | Structure (SMILES) | EC50 | Tyk2 selectivity over Jak1
1 | COCc1cc(-c2cn(C)c3cnc(NC(C)=O)cc23)nc([C@]2([C@H](C)O)CCOC2)c1 [Example 22.3, N-(3-(6-((R)-3-((S)-1-hydroxyethyl)tetrahydrofuran-3-yl)-4-(methoxymethyl)pyridin-2-yl)-1-methyl-1H-pyrrolo[2,3-c]pyridin-5-yl)acetamide] | 12.9 µM | 88-fold
2 | COCc1cc(-c2cn(C)c3cnc(NC(C)=O)cc23)nc([C@]2([C@@H](C)O)CCOC2)c1 [Example 22.4, N-(3-(6-((R)-3-((R)-1-hydroxyethyl)tetrahydrofuran-3-yl)-4-(methoxymethyl)pyridin-2-yl)-1-methyl-1H-pyrrolo[2,3-c]pyridin-5-yl)acetamide] | 27.2 µM | 243-fold
